Experimental findings from ChEMBL document CHEMBL4251748, “Discovery of Cytochrome P450 4F11 Activated Inhibitors of Stearoyl Coenzyme A Desaturase” (J Med Chem, 2018) are described below.

The EC50 is the concentration at which the effect is half-maximal.

Where only a bound is given, the exact number is not on record here.

For the experiment, the system named is NCI-H2122. The experiment in a line: Cytotoxicity against human NCI-H2122 cells incubated for 4 days. The following applies: NCI-H2122, 96 h. In kind it is functional, cell-based.
Regarding `COc1ccc(CCNC(=O)C(=O)Nc2ccc(Cl)cc2)cc1OC`, the EC50 is over 50 µM.

For the molecule `O=C(NCCc1ccccc1O)C(=O)Nc1ccc(Cl)cc1`, the EC50 was found to be 1.72 µM.

`COc1ccc(CCNC(=O)c2ccc(Cl)cc2)cc1` came in with an EC50 of over 50 µM.

Molecule `COc1ccc(CCNC(=O)N(C)C(=O)c2ccc(C(=O)c3ccccc3)cc2)cc1` gave an EC50 of 6.2 µM.

For `COc1ccc(CCNC(=O)C(=O)Nc2ccc(OC)c(C)c2)cc1`, a half-maximal response (EC50) required 0.81 µM.

`COc1ccc(CCNC(=O)C(=O)Nc2ccc(Cl)c(C#N)c2)cc1` returned an EC50 of 0.4 µM.

On to `COc1ccc(CCNC(=O)C(=O)N2CCc3ccccc3C2)cc1`, for which the EC50 is over 50 µM.

Consider `COc1ccc(CCNC(=O)C(=O)Nc2ccc(C)c(F)c2)cc1`, for which the EC50 was 0.31 µM.

Molecule `COc1ccc(CCNC(=O)c2ccc3cccc(O)c3n2)cc1` displayed a half-maximal effective concentration (EC50) of 30 µM.

Regarding `COc1ccc(CCNC(=O)C(=O)Nc2ccc(Cl)c(Cl)c2)cc1`, the EC50 turned out to be 0.49 µM.

Molecule `COc1ccc(CCNC(=O)C(=O)NC2CCCCCC2)cc1` gave an EC50 of over 50 µM.

`COc1ccc(CCNC(=O)C(=O)Nc2ccc(C(=O)c3ccc(O)cc3)cc2)cc1` yielded an EC50 of over 50 µM.

`COc1cccc(CCNC(=O)C(=O)Nc2ccc(Cl)cc2)c1` came in with an EC50 of over 50 µM.

Molecule `COc1ccc(CCNC(=O)C(=O)Nc2cc(Cl)cc(Cl)c2)cc1` returned an EC50 of over 50 µM.

`COc1ccc(CCNC(=O)NC(=O)c2ccc(C(=O)O)cc2)cc1` yielded an EC50 of over 50 µM.

Regarding `COc1ccc(CCNC(=O)C(=O)Nc2ccccc2)cc1`, the EC50 worked out at 0.46 µM.

For the molecule `O=C(NCCc1ccc(Cl)cc1)C(=O)Nc1ccc(Cl)cc1`, the EC50 was over 50 µM.

`COc1ccc(CCNC(=O)C(=O)Nc2ccc(Cl)c([N+](=O)[O-])c2)cc1`: the response was half-maximal at 1.3 µM (EC50).

In turn, `COc1ccc(CCNC(=O)NC(=O)c2ccc(C(=O)c3ccccc3C)cc2)cc1` returned an EC50 of 0.32 µM.

For `Cc1ccc(CCNC(=O)C(=O)Nc2ccc(Cl)cc2)cc1`, the EC50 is over 50 µM.

For `COc1ccc(CCNC(=O)C(=O)Nc2ccccc2F)cc1`, the EC50 is over 50 µM.

Take `COc1ccc(CCNC(=O)C(=O)NC2CCC2)cc1`: the EC50 was over 50 µM.

Consider `COc1ccc(CCNC(=O)C(=O)NC2CCCCC2)cc1`, for which the EC50 is over 50 µM.

For the molecule `COc1ccc(CCNC(=O)C(=O)Nc2cccnc2F)cc1`, the half-maximal effective concentration (EC50) is over 50 µM.

On to `COc1ccc(CCNC(=O)C(=O)N2CCCC2)cc1`, for which the EC50 is over 50 µM.

Molecule `CCOc1cccc(NC(=O)C(=O)NCCc2ccc(OC)cc2)c1` came in with an EC50 of 24 µM.

`COc1ccc(CCNC(=O)C(=O)NCCc2ccc(OC)cc2)cc1` displayed an EC50 of over 50 µM.

`COC(=O)c1ccc(C(=O)NC(=O)NCCc2ccc(OC)cc2)cc1` came in with an EC50 of over 50 µM.

For `COc1ccc(CCNC(=O)C(=O)Nc2ccc(F)c(Cl)c2)cc1`, it took 0.74 µM to reach a half-maximal effect (EC50).

With `COc1ccc(CCNC(=O)C(=O)Nc2cc(Cl)cc(C(F)(F)F)c2)cc1`, the EC50 was over 50 µM.

In the case of `COc1ccc(CCNC(=O)C(=O)Nc2ccccc2Br)cc1`, the 50% effective concentration (EC50) is over 50 µM.

Molecule `COc1ccc(CCCNC(=O)c2ccc(Cl)cc2)cc1` registered an EC50 of over 50 µM.

The molecule `COc1ccc(CCNC(=O)C(=O)Nc2ccccn2)cc1` returned an EC50 of over 50 µM.

`O=C(NCCc1ccc(Br)cc1)C(=O)Nc1ccc(Cl)cc1`: the EC50 is over 50 µM.

Regarding `COc1ccc(CCNC(=O)C(=O)Nc2cccc(Br)n2)cc1`, the EC50 is over 50 µM.

`COc1ccc(CCNC(=O)C(=O)Nc2ccccc2OC)cc1` registered an EC50 of over 50 µM.

Consider `COc1ccc(CCNC(=O)C(=O)NC2CCCC2)cc1`, for which the EC50 was over 50 µM.

Turning to `COc1ccc(CCNC(=O)c2nc3ccccc3[nH]2)cc1`, the half-maximal effective concentration (EC50) is over 50 µM.

The molecule `COc1ccc(CCNC(=O)NC(=O)c2ccc(C(=O)c3ccccc3)cc2)cc1` showed an EC50 of 0.11 µM.

`COc1ccc(CCNC(=O)C(=O)Nc2ccc(Cl)cn2)cc1` registered an EC50 of 0.35 µM.

`COc1ccc(CCNC(=O)NC(=O)c2ccc(OC)cc2)cc1` showed an EC50 of 1 µM.

In turn, `COc1ccc(CCNC(=O)C(=O)Nc2ccc(C)c(OC)c2)cc1` yielded an EC50 of over 50 µM.

As for `COc1ccc(CCNC(=O)Nc2ccc(Cl)cc2)cc1`, the EC50 is over 50 µM.

In the case of `COc1ccc(CCNC(=O)C(=O)N2CCc3ccccc32)cc1`, the EC50 is over 50 µM.

Turning to `COc1ccc(CCNC(=O)C(=O)Nc2ccc(Cl)c(C(F)(F)F)c2)cc1`, the EC50 worked out at 1.4 µM.

Take `COc1ccc(CCN(C)C(=O)NC(=O)c2ccc(C(=O)c3ccccc3)cc2)cc1`: it took 8.7 µM to reach a half-maximal effect (EC50).

As for `COc1ccc(CCNC(=O)C(=O)Nc2ccc(C#N)cc2)cc1`, the EC50 came out at 0.71 µM.

Turning to `COc1ccc(CCNC(=O)C(=O)Nc2ccc(C(=O)c3ccccc3)cc2)cc1`, the EC50 was found to be 0.085 µM.

`COc1ccc(CCNC(=O)c2nc3ccccc3c(=O)[nH]2)cc1` registered an EC50 of over 50 µM.

Molecule `COc1ccc(CCNC(=O)COc2ccc(Cl)cc2)cc1` yielded an EC50 of over 50 µM.

Regarding `COc1ccc(CCNC(=O)NC(=O)c2ccc(-c3ccccc3)cc2)cc1`, the EC50 was found to be 0.17 µM.

Consider `COc1ccc(CCNC(=O)NC(=O)c2ccc(Oc3ccccc3)cc2)cc1`, for which the EC50 was determined as 0.031 µM.

In turn, `COc1ccc(CCNC(=O)CNc2ccc(Cl)cc2)cc1` had an EC50 of over 50 µM.

The molecule `COc1ccc(CCNC(=O)C(=O)Nc2cncc(Cl)c2)cc1` showed an EC50 of 5.9 µM.

`COc1ccc(CCNC(=O)c2cnc3ccccc3n2)cc1` registered an EC50 of over 50 µM.

On to `COc1ccc(CCNC(=O)C(=O)NCc2ccc(Cl)cc2)cc1`, for which the EC50 was over 50 µM.

As to `COc1ccc(CCNC(=O)C(=O)O)cc1`, the EC50 was over 50 µM.

Turning to `COc1ccc(CCNC(=O)NC(=O)c2cccc(Br)c2)cc1`, the EC50 was over 50 µM.

With `COc1ccc(CCNC(=O)C(=O)Nc2cnccc2C)cc1`, the EC50 was over 50 µM.

As for `COc1ccc(CCNC(=O)C(=O)Nc2ccc(Cl)nc2)cc1`, the EC50 worked out at 0.44 µM.

In the case of `COc1ccc(CCN(C)C(=O)N(C)C(=O)c2ccc(C(=O)c3ccccc3)cc2)cc1`, the EC50 amounted to 16 µM.

Turning to `COc1ccc(CCNC(=O)C(=O)N2CCCCC2)cc1`, the EC50 was over 50 µM.

With `COc1ccc(CCNC(=O)NC(=O)c2ccc(C(=O)N3CCCCC3)cc2)cc1`, the EC50 worked out at 2.3 µM.

`COc1ccc(CCNC(=O)NC(=O)c2ccc(OCc3ccccc3)cc2)cc1` showed an EC50 of 0.031 µM.

The molecule `COc1ccc(CCNC(=O)C(=O)Nc2cccc(C#N)c2)cc1` returned an EC50 of 0.41 µM.

Molecule `COc1ccccc1CCNC(=O)C(=O)Nc1ccc(Cl)cc1` returned an EC50 of over 50 µM.

In the case of `COc1ccc(CCNC(=O)C(=O)N2Cc3ccccc3C2)cc1`, the EC50 was over 50 µM.

As for `O=C(NCCc1cccc(O)c1)C(=O)Nc1ccc(Cl)cc1`, a half-maximal response (EC50) required 2.4 µM.

For the molecule `COc1ccc(CCNC(=O)C(=O)Nc2ccc(F)cc2)cc1`, a half-maximal effect (EC50) was put at 0.29 µM.

Molecule `COc1ccc(CCNC(=O)NC(=O)c2ccc(Cl)cc2)cc1` showed an EC50 of 0.15 µM.

As for `COc1ccc(CCNC(=O)C(=O)Nc2ccc(C)c(Cl)c2)cc1`, the EC50 stood at 0.6 µM.

In turn, `COc1ccc(CCNC(=O)NC(=O)c2ccc(Br)cc2)cc1` registered an EC50 of 0.16 µM.

For `COc1ccc(CCNC(=O)NC(=O)c2ccc(C(N)c3ccccc3)cc2)cc1` (stereo unspecified), the response was half-maximal at 0.32 µM (EC50).

In turn, `COc1ccc(CCNC(=O)C(=O)Nc2cnccn2)cc1` displayed an EC50 of over 50 µM.

Molecule `O=C(NCCc1ccccc1)C(=O)Nc1ccc(Cl)cc1` gave a concentration giving a half-maximal response (EC50) of over 50 µM.

Consider `O=C(NCCc1ccc(F)cc1)C(=O)Nc1ccc(Cl)cc1`, for which the response was half-maximal at 48 µM (EC50).
